Assays:
[1] = target: Adenosine receptor A1 (Homo sapiens) (UniProt P30542); assay: A1H_AGON Cerep selectivity data (BI); conditions: filed as agonist, Compound concentration 20.0 uM
[2] = target: 5-hydroxytryptamine receptor 7 (Homo sapiens) (UniProt P34969); assay: 5HT7/H Cerep selectivity data (BI); conditions: Compound concentration 20.0 uM
[3] = target: Ribosomal protein S6 kinase alpha-5 (Homo sapiens) (UniProt O75582); assay: RPS6KA5 Invitrogen selectivity data (BI); conditions: Compound concentration 3.0 uM
[4] = target: Estrogen receptor (Homo sapiens) (UniProt P03372); assay: ERALPHA/H Eurofins-Panlabs selectivity data (BI); conditions: Compound concentration 10.0 uM
[5] = tested on: T1, Receptor-type tyrosine-protein kinase FLT3 (Homo sapiens), P36888 [D835Y]; assay: FLT3 D835Y Invitrogen selectivity data (BI); conditions: Compound concentration 3.0 uM
T1 sequence (whole entry): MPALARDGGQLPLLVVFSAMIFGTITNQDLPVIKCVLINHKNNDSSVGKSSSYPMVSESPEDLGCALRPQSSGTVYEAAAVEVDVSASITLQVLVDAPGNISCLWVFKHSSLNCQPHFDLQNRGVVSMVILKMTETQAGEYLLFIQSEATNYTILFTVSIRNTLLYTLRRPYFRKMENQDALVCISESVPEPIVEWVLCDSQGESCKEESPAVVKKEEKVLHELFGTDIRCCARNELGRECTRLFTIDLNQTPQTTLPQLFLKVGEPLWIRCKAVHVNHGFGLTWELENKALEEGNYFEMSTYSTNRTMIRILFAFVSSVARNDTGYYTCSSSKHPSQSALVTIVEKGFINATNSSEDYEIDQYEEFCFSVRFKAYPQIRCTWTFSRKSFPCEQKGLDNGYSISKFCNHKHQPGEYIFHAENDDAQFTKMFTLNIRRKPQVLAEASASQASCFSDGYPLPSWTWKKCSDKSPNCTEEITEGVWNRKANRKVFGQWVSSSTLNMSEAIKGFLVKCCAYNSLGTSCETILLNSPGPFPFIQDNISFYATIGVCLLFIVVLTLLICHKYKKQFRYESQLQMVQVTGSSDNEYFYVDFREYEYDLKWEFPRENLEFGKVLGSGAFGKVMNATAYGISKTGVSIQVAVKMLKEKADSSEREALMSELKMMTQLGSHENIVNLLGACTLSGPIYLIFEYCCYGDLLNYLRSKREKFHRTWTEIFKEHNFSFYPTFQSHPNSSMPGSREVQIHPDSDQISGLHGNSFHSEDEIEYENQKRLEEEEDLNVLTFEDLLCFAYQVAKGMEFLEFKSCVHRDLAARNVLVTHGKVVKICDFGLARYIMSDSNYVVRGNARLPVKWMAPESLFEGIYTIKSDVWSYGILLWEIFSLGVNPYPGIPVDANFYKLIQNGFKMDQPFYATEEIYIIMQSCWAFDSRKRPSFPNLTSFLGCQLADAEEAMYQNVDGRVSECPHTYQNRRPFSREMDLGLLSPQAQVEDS

[6] = target: Bombesin receptor subtype-3 (Homo sapiens) (UniProt P32247); assay: BB3H_AGON Cerep selectivity data (BI); conditions: filed as agonist, Compound concentration 20.0 uM
[7] = target: RAC-beta serine/threonine-protein kinase (Homo sapiens) (UniProt P31751); assay: AKT2 Invitrogen selectivity data (BI); conditions: Compound concentration 3.0 uM
[8] = target: Mitogen-activated protein kinase kinase kinase kinase 5 (Homo sapiens) (UniProt Q9Y4K4); assay: MAP4K5 Invitrogen selectivity data (BI); conditions: Compound concentration 3.0 uM
[9] = target: Dual specificity tyrosine-phosphorylation-regulated kinase 1B (Homo sapiens) (UniProt Q9Y463); assay: DYRK1B Invitrogen selectivity data (BI); conditions: Compound concentration 3.0 uM
[10] = target: T2, Serine/threonine-protein kinase Sgk3 (Homo sapiens) (UniProt Q96BR1); assay: SGKL Invitrogen selectivity data (BI); conditions: Compound concentration 3.0 uM
T2 sequence (whole entry): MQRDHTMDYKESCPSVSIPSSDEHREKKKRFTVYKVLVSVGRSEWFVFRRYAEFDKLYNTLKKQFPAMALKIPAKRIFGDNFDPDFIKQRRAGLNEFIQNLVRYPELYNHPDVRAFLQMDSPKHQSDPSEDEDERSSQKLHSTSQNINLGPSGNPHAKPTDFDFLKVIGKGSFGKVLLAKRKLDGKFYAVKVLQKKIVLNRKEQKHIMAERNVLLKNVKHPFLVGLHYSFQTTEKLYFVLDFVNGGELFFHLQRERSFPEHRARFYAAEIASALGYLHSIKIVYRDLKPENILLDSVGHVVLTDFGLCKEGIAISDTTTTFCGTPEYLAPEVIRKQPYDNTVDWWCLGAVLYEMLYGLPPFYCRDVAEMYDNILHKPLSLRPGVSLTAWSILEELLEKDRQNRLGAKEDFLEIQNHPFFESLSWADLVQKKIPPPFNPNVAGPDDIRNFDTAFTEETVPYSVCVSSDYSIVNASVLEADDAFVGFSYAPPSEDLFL

[11] = target: T3, 5-hydroxytryptamine receptor 1A (Homo sapiens) (UniProt P08908); assay: 5HT1A/H Cerep selectivity data (BI); conditions: Compound concentration 20.0 uM
T3 sequence (whole entry): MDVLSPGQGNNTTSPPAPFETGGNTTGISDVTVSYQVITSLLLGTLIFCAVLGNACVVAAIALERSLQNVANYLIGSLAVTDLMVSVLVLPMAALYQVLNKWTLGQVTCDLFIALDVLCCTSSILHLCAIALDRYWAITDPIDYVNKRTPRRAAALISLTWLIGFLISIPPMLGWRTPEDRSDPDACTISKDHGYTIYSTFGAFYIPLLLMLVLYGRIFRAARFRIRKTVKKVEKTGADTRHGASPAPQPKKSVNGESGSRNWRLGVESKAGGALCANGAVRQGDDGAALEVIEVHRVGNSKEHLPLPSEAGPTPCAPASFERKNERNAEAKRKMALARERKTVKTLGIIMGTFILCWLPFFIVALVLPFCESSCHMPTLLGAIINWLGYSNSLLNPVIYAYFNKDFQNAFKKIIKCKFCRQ

[12] = target: Thyroid hormone receptor alpha (Rattus norvegicus) (UniProt P63059); assay: THYROID HORM Eurofins-Panlabs selectivity data (BI); conditions: Compound concentration 10.0 uM

Measured: residual activity

Chain of Ribosomal protein S6 kinase alpha-5 (Homo sapiens) (O75582 whole entry, looked up): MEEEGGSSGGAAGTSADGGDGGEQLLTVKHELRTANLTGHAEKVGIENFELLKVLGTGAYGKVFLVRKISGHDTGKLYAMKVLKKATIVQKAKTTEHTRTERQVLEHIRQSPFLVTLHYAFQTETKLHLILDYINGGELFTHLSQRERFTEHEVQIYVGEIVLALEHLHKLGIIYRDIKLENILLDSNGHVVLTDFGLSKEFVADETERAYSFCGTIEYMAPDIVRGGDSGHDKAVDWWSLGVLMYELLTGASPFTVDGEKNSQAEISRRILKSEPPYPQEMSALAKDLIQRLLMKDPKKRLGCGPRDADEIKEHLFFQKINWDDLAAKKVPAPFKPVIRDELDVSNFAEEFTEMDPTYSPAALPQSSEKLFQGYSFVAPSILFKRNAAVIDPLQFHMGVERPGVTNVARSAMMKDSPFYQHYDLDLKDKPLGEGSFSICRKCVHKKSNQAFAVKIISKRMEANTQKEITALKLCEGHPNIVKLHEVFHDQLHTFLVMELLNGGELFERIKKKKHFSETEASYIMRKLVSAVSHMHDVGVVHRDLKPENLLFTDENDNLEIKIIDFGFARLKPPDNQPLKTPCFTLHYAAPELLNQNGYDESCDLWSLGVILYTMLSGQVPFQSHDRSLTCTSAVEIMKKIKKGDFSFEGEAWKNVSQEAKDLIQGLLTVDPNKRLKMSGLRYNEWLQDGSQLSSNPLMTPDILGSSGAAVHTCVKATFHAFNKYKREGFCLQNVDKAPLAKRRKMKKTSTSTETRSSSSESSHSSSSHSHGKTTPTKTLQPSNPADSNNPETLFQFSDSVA
Chain of RAC-beta serine/threonine-protein kinase (Homo sapiens) (P31751 whole entry): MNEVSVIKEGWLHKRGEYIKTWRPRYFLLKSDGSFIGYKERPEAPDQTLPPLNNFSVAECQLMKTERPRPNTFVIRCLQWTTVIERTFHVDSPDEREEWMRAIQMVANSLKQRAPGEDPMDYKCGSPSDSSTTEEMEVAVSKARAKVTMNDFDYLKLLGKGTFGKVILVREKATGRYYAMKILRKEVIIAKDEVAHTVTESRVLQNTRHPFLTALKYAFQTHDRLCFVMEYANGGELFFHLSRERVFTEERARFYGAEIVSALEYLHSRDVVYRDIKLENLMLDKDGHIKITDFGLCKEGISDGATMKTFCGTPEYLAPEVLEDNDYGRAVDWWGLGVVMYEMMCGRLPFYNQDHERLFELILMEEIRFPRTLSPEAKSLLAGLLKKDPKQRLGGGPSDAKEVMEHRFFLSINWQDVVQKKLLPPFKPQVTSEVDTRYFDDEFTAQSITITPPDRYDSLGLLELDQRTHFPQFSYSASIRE
Chain of Adenosine receptor A1 (Homo sapiens) (P30542 whole entry): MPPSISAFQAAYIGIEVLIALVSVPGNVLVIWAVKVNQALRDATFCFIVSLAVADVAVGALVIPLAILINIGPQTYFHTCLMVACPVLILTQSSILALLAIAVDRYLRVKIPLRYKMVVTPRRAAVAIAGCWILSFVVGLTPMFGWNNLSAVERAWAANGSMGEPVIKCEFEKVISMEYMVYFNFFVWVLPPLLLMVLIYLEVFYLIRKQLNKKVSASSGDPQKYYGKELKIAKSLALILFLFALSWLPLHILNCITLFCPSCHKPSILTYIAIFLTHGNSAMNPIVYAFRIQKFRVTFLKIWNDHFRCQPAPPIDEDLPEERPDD
Chain of Thyroid hormone receptor alpha (Rattus norvegicus) (P63059 whole entry): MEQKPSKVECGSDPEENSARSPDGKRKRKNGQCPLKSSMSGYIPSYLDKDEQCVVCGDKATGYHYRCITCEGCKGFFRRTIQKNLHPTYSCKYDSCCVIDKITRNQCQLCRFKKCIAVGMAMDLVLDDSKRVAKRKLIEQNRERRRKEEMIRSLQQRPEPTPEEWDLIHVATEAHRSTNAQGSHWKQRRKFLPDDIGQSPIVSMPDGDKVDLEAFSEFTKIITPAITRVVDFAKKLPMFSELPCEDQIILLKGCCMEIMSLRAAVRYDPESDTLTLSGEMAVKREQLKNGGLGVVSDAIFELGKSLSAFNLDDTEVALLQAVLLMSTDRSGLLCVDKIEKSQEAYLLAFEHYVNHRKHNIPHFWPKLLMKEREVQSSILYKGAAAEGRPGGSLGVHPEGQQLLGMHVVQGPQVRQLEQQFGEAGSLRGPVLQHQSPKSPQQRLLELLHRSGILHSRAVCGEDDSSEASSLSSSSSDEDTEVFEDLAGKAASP
Chain of 5-hydroxytryptamine receptor 7 (Homo sapiens) (P34969 whole entry): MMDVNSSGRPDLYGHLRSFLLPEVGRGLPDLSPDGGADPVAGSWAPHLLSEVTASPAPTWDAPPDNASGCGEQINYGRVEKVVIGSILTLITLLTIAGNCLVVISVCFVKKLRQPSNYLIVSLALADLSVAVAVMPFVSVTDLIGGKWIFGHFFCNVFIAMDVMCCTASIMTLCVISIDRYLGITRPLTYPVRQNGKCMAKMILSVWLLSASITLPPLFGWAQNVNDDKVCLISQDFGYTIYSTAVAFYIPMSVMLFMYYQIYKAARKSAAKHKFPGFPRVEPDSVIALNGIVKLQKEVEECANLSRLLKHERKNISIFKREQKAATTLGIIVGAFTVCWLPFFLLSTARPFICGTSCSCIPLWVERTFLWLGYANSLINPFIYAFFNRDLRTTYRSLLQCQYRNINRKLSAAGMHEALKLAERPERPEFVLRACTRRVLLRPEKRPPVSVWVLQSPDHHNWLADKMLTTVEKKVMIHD
Chain of Estrogen receptor (Homo sapiens) (P03372 whole entry): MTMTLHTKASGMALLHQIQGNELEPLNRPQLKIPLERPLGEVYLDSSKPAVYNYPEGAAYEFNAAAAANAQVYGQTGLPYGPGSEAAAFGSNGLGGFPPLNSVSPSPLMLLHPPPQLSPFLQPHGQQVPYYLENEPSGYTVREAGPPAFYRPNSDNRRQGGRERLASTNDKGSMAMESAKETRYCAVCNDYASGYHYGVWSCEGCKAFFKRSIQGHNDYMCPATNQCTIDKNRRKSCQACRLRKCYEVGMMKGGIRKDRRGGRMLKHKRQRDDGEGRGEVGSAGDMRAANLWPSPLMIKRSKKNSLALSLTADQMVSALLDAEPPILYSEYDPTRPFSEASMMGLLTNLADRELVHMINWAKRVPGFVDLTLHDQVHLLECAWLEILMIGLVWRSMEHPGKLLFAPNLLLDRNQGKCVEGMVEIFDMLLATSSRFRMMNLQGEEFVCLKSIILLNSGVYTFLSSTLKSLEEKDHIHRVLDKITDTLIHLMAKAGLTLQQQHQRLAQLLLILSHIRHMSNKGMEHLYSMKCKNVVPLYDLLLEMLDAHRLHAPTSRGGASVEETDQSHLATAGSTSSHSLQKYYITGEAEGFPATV
Chain of Bombesin receptor subtype-3 (Homo sapiens) (P32247 whole entry): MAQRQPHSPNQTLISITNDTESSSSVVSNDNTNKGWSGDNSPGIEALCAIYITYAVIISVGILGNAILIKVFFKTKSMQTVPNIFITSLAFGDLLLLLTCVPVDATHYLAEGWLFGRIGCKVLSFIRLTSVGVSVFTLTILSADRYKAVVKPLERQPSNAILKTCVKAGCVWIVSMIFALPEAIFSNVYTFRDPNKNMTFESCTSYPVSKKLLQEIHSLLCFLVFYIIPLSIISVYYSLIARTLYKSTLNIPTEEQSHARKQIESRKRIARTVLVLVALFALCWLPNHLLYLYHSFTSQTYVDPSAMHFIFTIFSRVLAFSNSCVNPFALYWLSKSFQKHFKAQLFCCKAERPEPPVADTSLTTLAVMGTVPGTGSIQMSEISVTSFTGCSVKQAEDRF
Chain of Dual specificity tyrosine-phosphorylation-regulated kinase 1B (Homo sapiens) (Q9Y463 whole entry, looked up): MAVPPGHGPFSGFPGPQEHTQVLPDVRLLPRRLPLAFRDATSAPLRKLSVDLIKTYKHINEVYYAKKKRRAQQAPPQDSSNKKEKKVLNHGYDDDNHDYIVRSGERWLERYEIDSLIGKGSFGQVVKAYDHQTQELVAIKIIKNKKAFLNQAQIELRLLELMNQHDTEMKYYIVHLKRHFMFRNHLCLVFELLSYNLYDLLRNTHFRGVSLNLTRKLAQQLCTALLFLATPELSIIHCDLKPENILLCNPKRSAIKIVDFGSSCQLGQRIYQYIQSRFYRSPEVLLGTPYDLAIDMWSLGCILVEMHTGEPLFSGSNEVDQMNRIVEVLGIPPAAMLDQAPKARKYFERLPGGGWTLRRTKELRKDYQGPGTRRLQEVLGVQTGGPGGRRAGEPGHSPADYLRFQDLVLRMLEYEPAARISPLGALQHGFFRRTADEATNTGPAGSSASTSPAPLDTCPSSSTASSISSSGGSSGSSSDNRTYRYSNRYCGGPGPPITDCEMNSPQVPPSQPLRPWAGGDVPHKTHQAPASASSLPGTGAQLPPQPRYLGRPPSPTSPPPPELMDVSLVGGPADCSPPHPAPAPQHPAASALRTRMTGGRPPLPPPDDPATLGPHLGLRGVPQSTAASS

CN(C)C(=O)Cn1cc(-c2nc([C@@](C)(c3ccc(-c4cnc(N)nc4)cc3)C3CC3)no2)cn1 [BI 665915]
inactive: [1] 81% | [2] 104% | [3] 97.5% | [4] 85% | [5] 79% | [6] 108% | [7] 98% | [8] 93% | [9] 104% | [10] 101% | [11] 77% | [12] 80%
